Structures can show the parent of a compound that is named as a salt. One block for each compound: values may come before it.
Assays:
[1] = target: Hsp90α (Homo sapiens, UniProt P07900); test: standard Hsp90α inhibition; type: binding
[2] = cancer cell line cytotoxicity assay; conditions: human, A549 cells (non-small cell lung cancer cell line)
[3] = test system: axolotl (Ambystoma mexicanum) embryo tail regeneration
[4] = second generation clinical analogue; cited from earlier work
[5] = second generation clinical analogue; cited from earlier work; remark: listed apart in the source
[6] = test system: human non-small cell lung A549

- IC50 [1]: 0.005 to 0.03 µM
Compound: COc1c(O)cc2cc1C[C@@H](C)C[C@H](OC)[C@H](O)[C@@H](C)/C=C(\C)[C@H](OC(N)=O)[C@@H](OC)CC/C=C(\C)C(=O)N2 [reblastatin]
- IC50 [2]: 0.7 µM

Compound: COC1=C2C[C@@H](C)C[C@H](OC)[C@H](O)[C@@H](C)/C=C(\C)[C@H](OC(N)=O)[C@@H](OC)/C=C\C=C(/C)C(=O)NC(=CC1=O)C2=O [Gdm, Geldanamycin]
- dose-response: observation at the highest dose ([3]; 10 μM, axolotl embryos): developmental abnormalities and toxicity
- axolotls dead at day 7 ([3]; axolotl (Ambystoma mexicanum), in vivo, 7 day): 3
- IC50 [2]: 0.001 µM

Compound: C=CCNc1c(O)cc2c(O)c1C[C@@H](C)C[C@H](OC)[C@H](O)[C@@H](C)/C=C(\C)[C@H](OC(N)=O)[C@@H](OC)/C=C\C=C(/C)C(=O)N2 [retaspimycin hydrochloride/IPI-504, retaspimycin hydrochloride]
- hepatotoxicity relative to first generation analogues [4]: reduced hepatotoxicity
- solubility relative to first generation analogues [5]: improved solubility

- IC50 [6]: > 50 µM
Compound: 17-O-demethyl-reblastatin
